# Data taken from patent US20250154152A1, “INHIBITORS OF NAEGLERIA FOWLERI” (Wisconsin Alumni Research Foundation, priority 2023, published 2025).
# System: N. fowleri strain Nf69 (ATCC 30215) trophozoites
# Experiment: Determination of EC50 values against Naegleria fowleri (growth inhibition, CellTiter Glo, 48 h)
# Type: cell-based
# Conditions: ATCC30215, N. fowleri Nf69 trophozoites, 48 h culture, 37° C., CellTiter Glo luminescence, read-out: EC50 uM against N. fowleri
# Procedure: N. fowleri strain Nf69 (ATCC 30215) trophozoites were cultured axenically. Amoeba were seeded at […] in 100 μL of the indicated medium in white TC-treated 96-well plates (Thermo Scientific Nunc Microwell 136101). Cells were seeded into Nelson's Complete Media (NCM, 0.17% liver infusion broth (BD Difco, Franklin Lakes, NJ), 0.17% glucose, 0.012% sodium chloride, 0.0136% potassium phosphate monobasic, 0.0142% sodium phosphate dibasic, 0.0004% calcium chloride, 0.0002% magnesium sulfate, 10% heat-inactivated fetal bovine serum (FBS), 1% penicillin-streptomycin) at 37° C. in 96-well tissue culture plates. Vehicle or compound at concentrations initially ranging from 20 to 0.375 μM were added to cells, followed by culture for 48 h (37° C., 5% CO2). Plates were equilibrated to rt for 15 min and CellTiter Glo reagent was added followed by orbital shaking for 2 min. After an additional incubation (rt, 10 min), luminescence was scored on a BioTek Synergy H1 microplate reader. Luminescence values were used to calculate percent cell growth inhibition (based on controls) for each concentration of compound tested. Averages of triplicates were calculated and fit to dose-response curves for the determination of EC50 values, using Prism 9.0 (GraphPad Software, San Diego, CA). […] Other controls included media alone, cells and media, and vehicle and media. For very potent compounds, concentration of reagent in the dose-response assays were reduced to provide an appropriate range for EC50 value resolution.
# Compounds of the present technology were tested for growth inhibition of N. fowleri per General Procedure 13, above.
row,Structure (SMILES),EC50 [µM]
1,"CCN1CCC[C@@H]2c3nc4ccccc4c(=O)n3CC[C@H]21 (racemic) [trans-5z, (±)-(4aR,13bS)-4-ethyl-1,2,3,4,4a,5,6,13b-octahydro-8H-[1,6]naphthyridino[5,6-b]quinazolin-8-one]",> 10
2,"CN1CCC[C@H]2c3nc4ccc(F)cc4c(=O)n3CC[C@H]21 (racemic) [cis-5f, (±)-(4aR,13bR)-10-fluoro-4-methyl-1,2,3,4,4a,5,6,13b-octahydro-8H-[1,6]naphthyridino[5,6-b]quinazolin-8-one]",> 10
3,"CN1CCO[C@@H]2c3nc4ccc(C(F)(F)F)cc4c(=O)n3CC[C@H]21 (racemic) [trans-5x, (±)-(4aR,13bS)-4-methyl-10-(trifluoromethyl)-3,4,4a,5,6,13b-hexahydro-[1,4]oxazino[2′,3′:3,4]pyrido[2,1-b]quinazolin-8(2H)-one]",> 10
4,"N#Cc1ccc(CN2CCC[C@@H]3c4nc5cc(Cl)c(Cl)cc5c(=O)n4CC[C@H]32)cc1 (racemic) [trans-7r, (±)-(4-(((4aR,13bS)-10,11-dichloro-8-oxo-2,3,5,6,8,13b-hexahydro-1H-[1,6]naphthyridino[5,6-b]quinazolin-4(4aH)-yl)methyl)benzonitrile]",> 10
5,"CN1CCC[C@@H]2c3nc4cccc(Cl)c4c(=O)n3CC[C@H]21 (racemic) [trans-5c, (±)-(4aR,13bS)-9-chloro-4-methyl-1,2,3,4,4a,5,6,13b-octahydro-8H-[1,6]naphthyridino[5,6-b]quinazolin-8-one]",> 10
6,"COc1ccc2nc3n(c(=O)c2c1)CC[C@@H]1[C@H]3CCCN1C (racemic) [cis-5g, (±)-(4aR,13bR)-10-methoxy-4-methyl-1,2,3,4,4a,5,6,13b-octahydro-8H-[1,6]naphthyridino[5,6-b]quinazolin-8-one]",> 10
7,"CN1CCO[C@H]2c3nc4ccc(C(F)(F)F)cc4c(=O)n3CC[C@H]21 (racemic) [cis-5x, (±)-(4aR,13bR)-4-methyl-10-(trifluoromethyl)-3,4,4a,5,6,13b-hexahydro-[1,4]oxazino[2′,3′:3,4]pyrido[2,1-b]quinazolin-8(2H)-one]",> 10
8,"COc1cc2nc3n(c(=O)c2cc1Cl)CC[C@@H]1[C@@H]3CCCN1CC1COC1 (single isomer, unassigned) [trans-10i-ent-1]",0.1 to 1
9,"O=c1c2cc(Cl)c(Cl)cc2nc2n1CC[C@@H]1[C@@H]2CCCN1Cc1ccc(C(F)(F)F)cc1 (racemic) [Compound 7u, (±)-(4aR,13bS)-10,11-dichloro-4-(4-(trifluoromethyl)benzyl)-1,2,3,4,4a,5,6,13b-octahydro-8H-[1,6]naphthyridino[5,6-b]quinazolin-8-one]",> 10
10,"O=c1c2cc(Cl)c(Cl)cc2nc2n1CC[C@@H]1[C@@H]2CCCN1CC1CC1 (racemic) [trans-7q, (±)-(4aR,13bS)-10,11-dichloro-4-(cyclopropylmethyl)-1,2,3,4,4a,5,6,13b-octahydro-8H-[1,6]naphthyridino[5,6-b]quinazolin-8-one]",0.0001 to 0.1
11,"CN1CCC[C@H]2c3nc4cnccc4c(=O)n3CC[C@H]21 (racemic) [cis-5p, (±)-(4aR,13bR)-4-methyl-1,2,3,4,4a,5,6,13b-octahydro-8H-pyrido[3′,4′:4,5]pyrimido[2,1-f][1,6]naphthyridin-8-one]",> 10
12,"CN1CCC[C@H]2c3nc4ccc(C#N)cc4c(=O)n3CC[C@H]21 (racemic) [cis-5i, (±)-(4aR,13bR)-4-methyl-8-oxo-2,3,4,4a,5,6,8,13b-octahydro-1H-[1,6]naphthyridino[5,6-b]quinazoline-10-carbonitrile]",1 to 10
13,"CN1CCN(C)[C@H]2c3nc4ccccc4c(=O)n3CC[C@H]21 (racemic) [cis-5y, (±)-(4aR,13bR)-1,4-dimethyl-1,2,3,4,4a,5,6,13b-octahydro-8H-pyrazino[2′,3′:3,4]pyrido[2,1-b]quinazolin-8-one]",> 10
14,"CN1CCC[C@@H]2c3nc4ccc(C(F)(F)F)cc4c(=O)n3CC[C@H]21 (racemic) [trans-5j, (±)-(4aR,13bS)-4-methyl-10-(trifluoromethyl)-1,2,3,4,4a,5,6,13b-octahydro-8H-[1,6]naphthyridino[5,6-b]quinazolin-8-one]",1 to 10
15,"COc1cc2nc3n(c(=O)c2cc1Cl)CC[C@@H]1[C@@H]3CCCN1Cc1cccnc1 (racemic) [trans-7ii, (±)-(4aR,13bS)-10-chloro-11-methoxy-4-(pyridin-3-ylmethyl)-1,2,3,4,4a,5,6,13b-octahydro-8H-[1,6]naphthyridino[5,6-b]quinazolin-8-one]",0.1 to 1
16,"Cc1cccc2nc3n(c(=O)c12)CC[C@@H]1[C@@H]3CCCN1C (racemic) [trans-5b, (±)-(4aR,13bS)-4,9-dimethyl-1,2,3,4,4a,5,6,13b-octahydro-8H-[1,6]naphthyridino[5,6-b]quinazolin-8-one]",> 10
17,"CN(C)CCn1c([C@@H]2CCCN(CC3COC3)C2)nc2cc(Cl)c(Cl)cc2c1=O [Compound R-14l, (R)-6,7-dichloro-3-(2-(dimethylamino)ethyl)-2-(1-(oxetan-3-ylmethyl)piperidin-3-yl)quinazolin-4(3H)-one]",> 10
18,"COCCN1CCC[C@@H]2c3nc4cc(Cl)c(Cl)cc4c(=O)n3CC[C@H]21 (racemic) [trans-7i, (±)-(4aR,13bS)-10,11-dichloro-4-(2-methoxyethyl)-1,2,3,4,4a,5,6,13b-octahydro-8H-[1,6]naphthyridino[5,6-b]quinazolin-8-one]",0.0001 to 0.1
19,"O=c1c2cc(Cl)c(Cl)cc2nc2n1CC[C@@H]1[C@@H]2CCCN1CCN1CCOCC1 (racemic) [trans-7y, (±)-(4aR,13bS)-10,11-dichloro-4-(2-morpholinoethyl)-1,2,3,4,4a,5,6,13b-octahydro-8H-[1,6]naphthyridino[5,6-b]quinazolin-8-one]",0.0001 to 0.1
20,"COc1cc2nc3n(c(=O)c2cc1Cl)CC[C@@H]1[C@@H]3CCCN1CC(C)C (single isomer, unassigned) [trans-10g-ent-1]",0.1 to 1
21,"CN1CCC[C@@H]2c3nc4cc(Cl)ccc4c(=O)n3CC[C@H]21 (racemic) [trans-5k, (±)-(4aR,13bS)-11-chloro-4-methyl-1,2,3,4,4a,5,6,13b-octahydro-8H-[1,6]naphthyridino[5,6-b]quinazolin-8-one]",1 to 10
22,"CC(C)(C)C(=O)N1CCC[C@@H]2c3nc4cc(Cl)c(Cl)cc4c(=O)n3CC[C@H]21 (racemic) [trans-7d, (±)-(4aR,13bS)-10,11-dichloro-4-pivaloyl-1,2,3,4,4a,5,6,13b-octahydro-8H-[1,6]naphthyridino[5,6-b]quinazolin-8-one]",> 10
23,"COc1ccc2c(=O)n3c(nc2c1)[C@H]1CCCN(C)[C@@H]1CC3 (racemic) [trans-50, (±)-(4aR,13bS)-11-methoxy-4-methyl-1,2,3,4,4a,5,6,13b-octahydro-8H-[1,6]naphthyridino[5,6-b]quinazolin-8-one]",1 to 10
24,"CN1CCC[C@@H]2c3nc4ccc(Cl)cc4c(=O)n3CC[C@H]21 (racemic) [trans-5d, (±)-(4aR,13bS)-10-chloro-4-methyl-1,2,3,4,4a,5,6,13b-octahydro-8H-[1,6]naphthyridino[5,6-b]quinazolin-8-one]",0.1 to 1
25,"O=C(N1CCOCC1)N1CCC[C@@H]2c3nc4cc(Cl)c(Cl)cc4c(=O)n3CC[C@H]21 (racemic) [trans-7f, (±)-(4aR,13bS)-10,11-dichloro-4-(morpholine-4-carbonyl)-1,2,3,4,4a,5,6,13b-octahydro-8H-[1,6]naphthyridino[5,6-b]quinazolin-8-one]",> 10
